This is an account of results in patent publication US12378243B2, “Quinoline compounds as inhibitors of KRAS” (Incyte Corporation, priority 2021, dated 2025).

Molecules are shown by their SMILES.

One data set has as its target KRAS G12V mutant (Homo sapiens, UniProt P01116, G12V). Kind of data set: GDP-GTP exchange assay, KRAS G12V. The data set is classed as biochemical. The note with it: bodipy loaded KRAS G12V 2.5 nM; 3 hours incubation after adding GppNHp-SOS1 mixture; read-out: G12V_exchange.
A further data set concerns the target KRAS G12D (Homo sapiens, UniProt P01116, G12D). Kind of data set: GDP-GTP exchange assay, KRAS G12D. The data set is classed as biochemical. The note with it: bodipy-loaded KRAS G12D 2.5 nM, GppNHp 500 uM, SOS1 150 nM; 4 hours pre-incubation, 2 hours incubation; read-out: G12D_exchange. On the procedure:
Inhibitors were serially diluted in DMSO and a volume of 0.1 μL was transferred to the wells of a black low volume 384-well plate. […] The exchange was initiated by the addition of a 5 μL/well volume containing 1 mM GppNHp and 300 nM SOS1 in assay buffer. […] The reaction plates were incubated at ambient temperature for 2 hours, a time estimated for complete GDP-GTP exchange in the absence of inhibitor.
Either GraphPad prism or Genedata Screener SmartFit was used to analyze the data. The IC50 values were derived by fitting the data to a four parameter logistic equation producing a sigmoidal dose-response curve with a variable Hill coefficient.
“NA” indicates IC50 not available.

For the next data set, the system named is Caco-2 cells. Put plainly: Caco2 assay (permeability, A-B). The data set is classed as in vitro ADME. The conditions noted are these: Papp absorptive direction (A-B), test compound 50 μM, 120 minutes at 37° C. On the procedure:
Caco-2 cells are grown at 37° C. in an atmosphere of 5% CO2 in DMEM growth medium supplemented with 10% (v/v) fetal bovine serum, 1% (v/v) nonessential amino acids, penicillin (100 U/mL), and streptomycin (100 μg/mL). Confluent cell monolayers are subcultured every 7 days or 4 days for Caco-2 by treatment with 0.05% trypsin containing […]. Caco-2 cells are seeded in 96-well Transwell plates. The seeding density for Caco-2 cells is 14,000 cells/well. DMEM growth medium is replaced every other day after seeding. Cell monolayers are used for transport assays between 22 and 25 days for Caco-2 cells.
Cell culture medium is removed and replaced with HBSS. To measure the TEER, the HBSS is added into the donor compartment (apical side) and receiver compartment (basolateral side). The TEER is measured by using a REMS Autosampler to ensure the integrity of the cell monolayers. Caco-2 cell monolayers with TEER values ≥300 Ω·cm^2 are used for transport experiments. To determine the Papp in the absorptive direction (A-B), solution of test compound (50 μM) in HBSS is added to the donor compartment (apical side), while HBSS solution with 4% BSA is added to the receiver compartment (basolateral side). The apical volume was 0.075 mL, and the basolateral volume is 0.25 mL. The incubation period is 120 minutes at 37° C. in an atmosphere of 5% CO2. At the end of the incubation period, samples from the donor and receiver sides are removed and an equal volume of acetonitrile is added for protein precipitation. The supernatants are collected after centrifugation (3000 rpm, Allegra X-14R Centrifuge from Beckman Coulter, Indianapolis, IN) for LCMS analysis. The permeability value is determined according to the equation:
[formula] • where the flux rate (F, mass/time) is calculated from the slope of cumulative amounts of compound of interest on the receiver side, SA is the surface area of the cell membrane, VD is the donor volume, and MD is the initial amount of the solution in the donor chamber.
The symbol “+” indicates a Caco-2 value of […], “++” indicates a Caco-2 value of >0.5 but ≤1; and “+++” indicates a Caco-2 value of >1. “NA” indicates IC50 not available.

Sequence of KRAS G12V mutant (P01116 1-188 isoform P01116-2 G12V): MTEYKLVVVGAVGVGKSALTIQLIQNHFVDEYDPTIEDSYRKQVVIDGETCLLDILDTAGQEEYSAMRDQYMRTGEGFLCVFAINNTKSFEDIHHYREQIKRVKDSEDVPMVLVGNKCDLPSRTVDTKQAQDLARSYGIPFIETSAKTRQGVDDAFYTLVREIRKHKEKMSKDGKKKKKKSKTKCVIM
Sequence of KRAS G12D (P01116 1-188 isoform P01116-2 G12D): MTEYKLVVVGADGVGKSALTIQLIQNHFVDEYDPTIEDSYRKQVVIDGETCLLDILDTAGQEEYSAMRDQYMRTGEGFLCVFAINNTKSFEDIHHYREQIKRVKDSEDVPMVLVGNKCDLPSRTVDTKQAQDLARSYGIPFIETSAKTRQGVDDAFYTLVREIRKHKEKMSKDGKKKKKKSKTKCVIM

On to `CC(=O)N1CC[C@H](n2ncc3c(O[C@@H](C)[C@@H]4CCCN4C)nc4c(F)c(-c5cccc6cccc(C#N)c56)c(C#N)cc4c32)C[C@H]1CC#N` (single isomer, unassigned) [Example 7], for which the IC50 on KRAS G12V mutant and on KRAS G12D was less than 100 nM in each case. In addition, in the data set on Caco-2 cells (Table 3), the Caco-2 result is “+++ (a Caco-2 value of >1)”.
For `Cc1cc2c(nc(O[C@@H](C)[C@@H]3CCCN3C)c3cc(CN4CCOCC4=O)n([C@H]4[C@H]5CN[C@@H]4C5)c32)c(F)c1-c1cccc2cccc(C#N)c12` (single isomer, unassigned) [Example 8], the IC50 at KRAS G12V mutant and at KRAS G12D was less than 100 nM throughout. In the data set with Caco-2 cells (Table 3), the Caco-2 entry was “+ (a Caco-2 value of 50.5)”.
For `C[C@H](Oc1nc2c(F)c(-c3csc4ccccc34)c(CCC#N)cc2c2c1cc(CN1CCCC1=O)n2[C@H]1[C@H]2CN[C@@H]1C2)[C@@H]1CCCN1C` (single isomer, unassigned) [Example 9], the IC50 at KRAS G12V mutant and at KRAS G12D was less than 100 nM in each case. Besides, in the data set on Caco-2 cells (Table 3), the Caco-2 entry was “+ (a Caco-2 value of 50.5)”.
For `C[C@@H](CN(C)C)Oc1nc2c(F)c(-c3cccc4ccc(F)cc34)c(CCC#N)cc2c2c1cc(CN1CCCC1=O)n2[C@H]1[C@H]2CN[C@@H]1C2` (single isomer, unassigned) [Example 10], the IC50 at KRAS G12V mutant and at KRAS G12D was less than 100 nM each time. In addition, in the data set with Caco-2 cells (Table 3), the Caco-2 result was “+ (a Caco-2 value of 50.5)”.
With `Cc1cc2c(O[C@@H](C)[C@@H]3CCCN3C)nc3c(F)c(-c4cccc5cccc(C#N)c45)c(CCC#N)cc3c2n1[C@H]1[C@H]2CN[C@@H]1C2` (single isomer, unassigned) [Example 11], the IC50 at KRAS G12V mutant and on KRAS G12D was less than 100 nM throughout. Besides, the Caco-2 entry in the data set with Caco-2 cells (Table 3) was “+ (a Caco-2 value of 50.5)”.
On to `Cc1cc2c(O[C@@H](C)[C@@H]3CCCN3C)nc3c(F)c(-c4cc(O)cc(Cl)c4Cl)c(CCC#N)cc3c2n1[C@H]1[C@H]2CN[C@@H]1C2` (single isomer, unassigned) [Example 12], for which the IC50 on KRAS G12V mutant and at KRAS G12D was less than 100 nM in each case. In addition, in the data set with Caco-2 cells (Table 3), the Caco-2 result was “+ (a Caco-2 value of 50.5)”.
For the compound `CN1CC(F)(COc2nc3c(F)c(-c4cc(O)cc5ccccc45)c(CCC#N)cc3c3c2cc(CCC(=O)N(C)C)n3[C@H]2[C@H]3CN[C@@H]2C3)C1` (single isomer, unassigned) [Example 13], the IC50 on KRAS G12V mutant and on KRAS G12D was less than 100 nM each time.
Turning to `Cc1cnc(-c2nc3c(F)c(-c4cc(O)cc5ccccc45)c(CCC#N)cc3c3c2cc(C)n3[C@H]2[C@H]3CN[C@@H]2C3)cn1` (single isomer, unassigned) [Example 14], the IC50 on KRAS G12V mutant and at KRAS G12D was less than 100 nM each time. Besides, in the data set with Caco-2 cells (Table 3), the Caco-2 result is listed as “++ (a Caco-2 value of >0.5 but ≤1)”.
Consider `C[C@H](Oc1nc2c(F)c(-c3cccc4ccc(F)c(F)c34)c(CCC#N)cc2c2c1cc(CCC(=O)N1CCC1)n2[C@H]1[C@H]2CN[C@@H]1C2)[C@@H]1CCCN1C` (single isomer, unassigned) [Example 20], for which the IC50 on KRAS G12V mutant and on KRAS G12D was less than 100 nM in each case. Besides, the Caco-2 entry in the data set on Caco-2 cells (Table 3) is given as “+ (a Caco-2 value of 50.5)”.
Regarding `C[C@H](Oc1nc2c(F)c(-c3cccc4cc(F)c(F)cc34)c(CCC#N)cc2c2c1cc(CCC(=O)N1CCC1)n2[C@H]1[C@H]2CN[C@@H]1C2)[C@@H]1CCCN1C` (single isomer, unassigned) [Example 21], the IC50 on KRAS G12V mutant and at KRAS G12D was less than 100 nM each time. In addition, in the data set on Caco-2 cells (Table 3), the Caco-2 result is “+ (a Caco-2 value of 50.5)”.
In the case of `Cc1cc2c(O[C@@H](C)[C@@H]3CCCN3C)nc3c(F)c(-c4cc(O)cc5ccc(F)cc45)c(CCC#N)cc3c2n1[C@H]1[C@H]2CN[C@@H]1C2` (single isomer, unassigned) [Example 22], the IC50 on KRAS G12V mutant and on KRAS G12D was less than 100 nM in each case. In addition, the Caco-2 entry with Caco-2 cells (Table 3) is “+ (a Caco-2 value of 50.5)”.
As for `CC(=O)N1CC[C@H](n2ncc3c(O[C@@H](C)[C@@H]4CCCN4C)nc4c(F)c(-c5nccc6cccc(C#N)c56)c(Cl)cc4c32)C[C@H]1CC#N` (single isomer, unassigned) [Example 23a], the IC50 at KRAS G12V mutant and on KRAS G12D was less than 100 nM throughout.
Regarding `CC(=O)N1CC[C@H](n2ccc3c(O[C@@H](C)[C@@H]4CCCN4C)nc4c(F)c(-c5cccc6cccc(C#N)c56)c(Cl)cc4c32)C[C@H]1CC#N` (single isomer, unassigned) [Example 24a], the IC50 at KRAS G12V mutant and at KRAS G12D was less than 100 nM throughout.
For the compound `Cc1nc2c(F)c(-c3cccc(Cl)c3Cl)c(CCC#N)cc2c2c1cc(C1CCc3cccc(=O)n31)n2[C@H]1[C@H]2CN[C@@H]1C2` (single isomer, unassigned) [Example 31], the IC50 on KRAS G12V mutant and at KRAS G12D was less than 100 nM in each case. In addition, in the data set with Caco-2 cells (Table 4), the Caco-2 result is on record as “+ (a Caco-2 value of 50.5)”.
Take `CC(=O)N1CCC[C@@H]1c1cc2c(-c3ccnc(C)c3)nc3c(F)c(-c4cccc5c4C(C#N)CCC5)c(C)cc3c2n1[C@H]1[C@H]2CN[C@@H]1C2` (single isomer, unassigned) [Example 35]: the IC50 at KRAS G12V mutant and at KRAS G12D was less than 100 nM in each case. For the same compound, the Caco-2 result in the data set on Caco-2 cells (Table 4) was “++ (a Caco-2 value of >0.5 but ≤1)”.
Turning to `CNC(=O)c1ccc(-c2nc3c(F)c(-c4cccc(Cl)c4C)c(CCC#N)cc3c3c2cc([C@@H](C)n2ccncc2=O)n3[C@H]2[C@H]3CN[C@@H]2C3)cn1` (single isomer, unassigned) [Example 36], the IC50 on KRAS G12V mutant and at KRAS G12D was less than 100 nM each time. The Caco-2 entry in the data set on Caco-2 cells (Table 4) is on record as “+++ (a Caco-2 value of >1)”.
Consider `Cc1cnc(-c2nc3c(F)c(-c4cccc(Cl)c4C)c(CCC#N)cc3c3c2cc([C@@H](C)n2ccncc2=O)n3[C@H]2[C@H]3CN[C@@H]2C3)cn1` (single isomer, unassigned) [Example 38], for which the IC50 at KRAS G12V mutant and on KRAS G12D was less than 100 nM throughout. Besides, the Caco-2 result in the data set on Caco-2 cells (Table 4) was “+++ (a Caco-2 value of >1)”.
`CC(=O)N1CC[C@H](n2ncc3c(O[C@@H](C)[C@@H]4CCCN4C)nc4c(F)c(-c5nccc6cccc(C#N)c56)c(Cl)cc4c32)C[C@H]1CC#N` [Example 23, 1-(1-((2S,4S)-1-Acetyl-2-(cyanomethyl)piperidin-4-yl)-8-chloro-6-fluoro-4-((S)-1-((S)-1-methylpyrrolidin-2-yl)ethoxy)-1H-pyrazolo[4,3-c]quinolin-7-yl)isoquinoline-8-carbonitrile]: the Caco-2 result in the data set with Caco-2 cells (Table 3) was “++ (a Caco-2 value of >0.5 but ≤1)”.
In the case of `CC(=O)N1CC[C@H](n2ccc3c(O[C@@H](C)[C@@H]4CCCN4C)nc4c(F)c(-c5cccc6cccc(C#N)c56)c(Cl)cc4c32)C[C@H]1CC#N` [Example 24, 8-(1-((2S,4S)-1-acetyl-2-(cyanomethyl)piperidin-4-yl)-8-chloro-6-fluoro-4-((S)-1-((S)-1-methylpyrrolidin-2-yl)ethoxy)-1H-pyrrolo[3,2-c]quinolin-7-yl)-1-naphthonitrile], in the data set with Caco-2 cells (Table 3), the Caco-2 result is recorded as “+ (a Caco-2 value of 50.5)”.
As to `Cc1cnc(-c2nc3c(F)c(-c4cccc(Cl)c4C)c(CCC#N)cc3c3c2cc([C@@H](C)N2CCOCC2=O)n3[C@H]2[C@H]3CN[C@@H]2C3)cn1` [Example 44, 3-(1-((1R,4R,5S)-2-Azabicyclo[2.1.1]hexan-5-yl)-7-(3-chloro-2-methylphenyl)-6-fluoro-4-(5-methylpyrazin-2-yl)-2-((R)-1-(3-oxomorpholino)ethyl)-1H-pyrrolo[3,2-c]quinolin-8-yl)propanenitrile], the Caco-2 entry with Caco-2 cells (Table 4) is “+++ (a Caco-2 value of >1)”.
